Test results taken from patent publication US6720136B2, “Solid phase quenching systems” (V. I Technologies, Inc., priority 1998, dated 2004).

Assay: Quenching of ethyleneimine dimer in whole CPD human blood, EID concentration in plasma and RBC fractions by HPLC
Method: 50 μl of 120 mM ethyleneimine dimer (EID, PEN102) in 0.25 M NaH2PO4 was added to 0.9 ml of whole human CPD blood (final concentration of EID was 6 mM, 6 μmole total), and incubated at 23° C. for 4 hours. At the end of the 4-hour incubation period, 68 mg (50 μmole-equivalents of phosphothiomonoester groups) of ArgoPore-Thiophosphate support (prepared as described in Example 2) was added. In the parallel experiment, 50 μl of 1 M Na2S2O3 (final concentration 50 mM) was added to same amount of EID treated blood. Both samples were allowed to incubate for 2 hours at 23° C. The red blood cell (RBC) and plasma fraction of the blood were separated by centrifugation (10,000 rpm, 5 min), and the RBCs were opened by adding 9 volumes of water. The concentration of EID was determined in the RBC fraction and in the plasma fraction of the blood by HPLC (FIG. 6).

SMILES: O=S(O)(O)=S [sodium thiosulfate]
- concentration of ethyleneimine dimer in plasma fraction after quenching (6 mM EID for 4 hours at 23° C., then quencher (50 μmole-equivalents support or 50 mM Na2S2O3) for 2 hours at 23° C., plasma): 6.8 µg/mL
- concentration of ethyleneimine dimer in red blood cell fraction after quenching (6 mM EID for 4 hours at 23° C., then quencher (50 μmole-equivalents support or 50 mM Na2S2O3) for 2 hours at 23° C., red blood cells): 2.2 µg/mL
- quenching of ethyleneimine dimer in blood (in words) (6 mM EID, quencher 2 hours at 23° C.): capable of quenching ethyleneimine dimer
